Tests used:
Type in all cases: in vivo
[1] = test system: barnyardgrass (Echinochloa crus-galli); assay: Test A preemergence, barnyardgrass; conditions: 0 to 100 scale, 0 no effect, 100 complete control
From the text: (§1) Seeds of plant species selected from barnyardgrass (Echinochloa crus-galli), crabgrass, large (large crabgrass, Digitaria sanguinalis), kochia (Kochia scoparia), ragweed (common ragweed, Ambrosia elatior), morningglory (Ipomoea spp.), velvetleaf (Abutilon theophrasti), ryegrass, Italian (Italian ryegrass, Lolium multiflorum), foxtail, giant (giant foxtail, Setaria faberii), wheat (Triticum aestivum), corn (Zea mays), and pigweed (Amaranthus retroflexus), were planted into a blend of loam soil and sand and treated preemergence with a directed soil spray using test chemicals formulated in a non-phytotoxic solvent mixture which included a surfactant. At the same time, plants selected from these crop and weed species and also blackgrass (Alopecurus myosuroides), and galium (catchweed bedstraw, Galium aparine), were planted in pots containing the same blend of loam soil and sand and treated with postemergence applications of test chemicals formulated in the same manner. Plants ranged in height from 2 to 10 cm and were in the one- to two-leaf stage for the postemergence treatment. Treated plants and untreated controls were maintained in a greenhouse for approximately 10 d, after which time all treated plants were compared to untreated controls and visually evaluated for injury. Plant response ratings, summarized in Table A, are based on a 0 to 100 scale where 0 is no effect and 100 is complete control. A dash (-) response means no test result.

[2] = test system: kochia (Kochia scoparia); assay: Test A preemergence, kochia; conditions: 0 to 100 scale, 0 no effect, 100 complete control
From the text: as §1

[3] = test system: ragweed (common ragweed, Ambrosia elatior); assay: Test A preemergence, ragweed; conditions: 0 to 100 scale, 0 no effect, 100 complete control
From the text: as §1

[4] = test system: ryegrass, Italian (Italian ryegrass, Lolium multiflorum); assay: Test A preemergence, ryegrass, Italian; conditions: 0 to 100 scale, 0 no effect, 100 complete control
From the text: as §1

[5] = test system: foxtail, giant (giant foxtail, Setaria faberii); assay: Test A preemergence, foxtail, giant; conditions: 0 to 100 scale, 0 no effect, 100 complete control
From the text: as §1

[6] = test system: pigweed (Amaranthus retroflexus); assay: Test A preemergence, pigweed; conditions: 0 to 100 scale, 0 no effect, 100 complete control
From the text: as §1

[7] = test system: barnyardgrass (Echinochloa crus-galli); assay: Test A postemergence, barnyardgrass; conditions: 0 to 100 scale, 0 no effect, 100 complete control
From the text: as §1

[8] = test system: kochia (Kochia scoparia); assay: Test A postemergence, kochia; conditions: 0 to 100 scale, 0 no effect, 100 complete control
From the text: as §1

[9] = test system: ragweed (common ragweed, Ambrosia elatior); assay: Test A postemergence, ragweed; conditions: 0 to 100 scale, 0 no effect, 100 complete control
From the text: as §1

[10] = test system: ryegrass, Italian (Italian ryegrass, Lolium multiflorum); assay: Test A postemergence, ryegrass, Italian; conditions: 0 to 100 scale, 0 no effect, 100 complete control
From the text: as §1

[11] = test system: foxtail, giant (giant foxtail, Setaria faberii); assay: Test A postemergence, foxtail, giant; conditions: 0 to 100 scale, 0 no effect, 100 complete control
From the text: as §1

[12] = test system: wheat (Triticum aestivum); assay: Test A postemergence, wheat; conditions: 0 to 100 scale, 0 no effect, 100 complete control
From the text: as §1

[13] = test system: corn (Zea mays); assay: Test A postemergence, corn; conditions: 0 to 100 scale, 0 no effect, 100 complete control
From the text: as §1

[14] = test system: pigweed (Amaranthus retroflexus); assay: Test A postemergence, pigweed; conditions: 0 to 100 scale, 0 no effect, 100 complete control
From the text: as §1

[15] = test system: blackgrass (Alopecurus myosuroides); assay: Test A postemergence, blackgrass; conditions: 0 to 100 scale, 0 no effect, 100 complete control
From the text: as §1

[16] = test system: galium (catchweed bedstraw, Galium aparine); assay: Test A postemergence, galium; conditions: 0 to 100 scale, 0 no effect, 100 complete control
From the text: as §1

[17] = test system: barnyardgrass (Echinochloa crus-galli); assay: Test B flooded paddy test, barnyardgrass; conditions: Flood, scale 0 to 100 (0 no effect, 100 complete control), 13 to 15 d
Protocol: (§2) Plant species in the flooded paddy test selected from rice (Oryza sativa), sedge, umbrella (small-flower umbrella sedge, Cyperus difformis), ducksalad (Heteranthera limosa), and barnyardgrass (Echinochloa crus-galli) were grown to the 2-leaf stage for testing. At time of treatment, test pots were flooded to 3 cm above the soil surface, treated by application of test compounds directly to the paddy water, and then maintained at that water depth for the duration of the test. Treated plants and controls were maintained in a greenhouse for 13 to 15 d, after which time all species were compared to controls and visually evaluated. Plant response ratings, summarized in Table B, are based on a scale of 0 to 100 where 0 is no effect and 100 is complete control. A dash (-) response means no test result.

[18] = test system: ducksalad (Heteranthera limosa); assay: Test B flooded paddy test, ducksalad; conditions: Flood, scale 0 to 100 (0 no effect, 100 complete control), 13 to 15 d
Protocol: as §2

[19] = test system: rice (Oryza sativa); assay: Test B flooded paddy test, rice; conditions: Flood, scale 0 to 100 (0 no effect, 100 complete control), 13 to 15 d
Protocol: as §2

[20] = test system: sedge, umbrella (small-flower umbrella sedge, Cyperus difformis); assay: Test B flooded paddy test, sedge, umbrella; conditions: Flood, scale 0 to 100 (0 no effect, 100 complete control), 13 to 15 d
Protocol: as §2

## CN1CC(c2cccc(C(F)(F)F)c2)N(C(=O)Nc2ccccc2F)C1=O (stereo not drawn) [Compound 16]
[1]; 31 g ai/ha
  Plant response rating, Barnyardgrass: 0
[1]; 125 g ai/ha
  Plant response rating, Barnyardgrass: 30
[2]; 31 g ai/ha
  Plant response rating, Kochia: 0
[2]; 125 g ai/ha
  Plant response rating, Kochia: 0
[3]; 31 g ai/ha
  Plant response rating, Ragweed: 0
[3]; 125 g ai/ha
  Plant response rating, Ragweed: 0
[4]; 31 g ai/ha
  Plant response rating, Ryegrass, Italian: 0
[4]; 125 g ai/ha
  Plant response rating, Ryegrass, Italian: 0
[5]; 31 g ai/ha
  Plant response rating, Foxtail, Giant: 30
[5]; 125 g ai/ha
  Plant response rating, Foxtail, Giant: 70
[6]; 31 g ai/ha
  Plant response rating, Pigweed: 0
[6]; 125 g ai/ha
  Plant response rating, Pigweed: 0
[7]; 31 g ai/ha
  Plant response rating, Barnyardgrass: 0
[7]; 125 g ai/ha
  Plant response rating, Barnyardgrass: 10
[8]; 31 g ai/ha
  Plant response rating, Kochia: 0
[8]; 125 g ai/ha
  Plant response rating, Kochia: 0
[9]; 31 g ai/ha
  Plant response rating, Ragweed: 0
[9]; 125 g ai/ha
  Plant response rating, Ragweed: 0
[10]; 31 g ai/ha
  Plant response rating, Ryegrass, Italian: 0
[10]; 125 g ai/ha
  Plant response rating, Ryegrass, Italian: 0
[11]; 31 g ai/ha
  Plant response rating, Foxtail, Giant: 0
[11]; 125 g ai/ha
  Plant response rating, Foxtail, Giant: 10
[12]; 31 g ai/ha
  Plant response rating, Wheat: 0
[12]; 125 g ai/ha
  Plant response rating, Wheat: 0
[13]; 31 g ai/ha
  Plant response rating, Corn: 0
[13]; 125 g ai/ha
  Plant response rating, Corn: 0
[14]; 31 g ai/ha
  Plant response rating, Pigweed: 0
[14]; 125 g ai/ha
  Plant response rating, Pigweed: 0
[15]; 31 g ai/ha
  Plant response rating, Blackgrass: 0
[15]; 125 g ai/ha
  Plant response rating, Blackgrass: 0
[16]; 31 g ai/ha
  Plant response rating, Galium: 0
[16]; 125 g ai/ha
  Plant response rating, Galium: 0
[17]; 250 g ai/ha
  Plant response rating, Barnyardgrass: 0
[18]; 250 g ai/ha
  Plant response rating, Ducksalad: 0
[19]; 250 g ai/ha
  Plant response rating, Rice: 0
[20]; 250 g ai/ha
  Plant response rating, Sedge, Umbrella: 0

## O=C1NCC(c2ccc(F)c(F)c2)N1C(=O)Nc1ccccc1C(F)(F)F (stereo not drawn) [Compound 10]
[1]; 125 g ai/ha
  Plant response rating, Barnyardgrass: 0
[1]; 500 g ai/ha
  Plant response rating, Barnyardgrass: 0
[2]; 125 g ai/ha
  Plant response rating, Kochia: 0
[2]; 500 g ai/ha
  Plant response rating, Kochia: 0
[3]; 125 g ai/ha
  Plant response rating, Ragweed: 0
[3]; 500 g ai/ha
  Plant response rating, Ragweed: 0
[4]; 125 g ai/ha
  Plant response rating, Ryegrass, Italian: 0
[4]; 500 g ai/ha
  Plant response rating, Ryegrass, Italian: 0
[5]; 125 g ai/ha
  Plant response rating, Foxtail, Giant: 20
[5]; 500 g ai/ha
  Plant response rating, Foxtail, Giant: 60
[6]; 125 g ai/ha
  Plant response rating, Pigweed: 0
[6]; 500 g ai/ha
  Plant response rating, Pigweed: 0
[7]; 125 g ai/ha
  Plant response rating, Barnyardgrass: 0
[7]; 500 g ai/ha
  Plant response rating, Barnyardgrass: 0
[8]; 125 g ai/ha
  Plant response rating, Kochia: 0
[8]; 500 g ai/ha
  Plant response rating, Kochia: 0
[9]; 125 g ai/ha
  Plant response rating, Ragweed: 0
[9]; 500 g ai/ha
  Plant response rating, Ragweed: 0
[10]; 125 g ai/ha
  Plant response rating, Ryegrass, Italian: 0
[10]; 500 g ai/ha
  Plant response rating, Ryegrass, Italian: 0
[11]; 125 g ai/ha
  Plant response rating, Foxtail, Giant: 0
[11]; 500 g ai/ha
  Plant response rating, Foxtail, Giant: 40
[12]; 125 g ai/ha
  Plant response rating, Wheat: 0
[12]; 500 g ai/ha
  Plant response rating, Wheat: 0
[13]; 125 g ai/ha
  Plant response rating, Corn: 0
[13]; 500 g ai/ha
  Plant response rating, Corn: 0
[14]; 125 g ai/ha
  Plant response rating, Pigweed: 0
[14]; 500 g ai/ha
  Plant response rating, Pigweed: 0
[15]; 125 g ai/ha
  Plant response rating, Blackgrass: 0
[15]; 500 g ai/ha
  Plant response rating, Blackgrass: 0
[16]; 125 g ai/ha
  Plant response rating, Galium: 0
[16]; 500 g ai/ha
  Plant response rating, Galium: 0
[17]; 500 g ai/ha
  Plant response rating, Barnyardgrass: 0
[18]; 500 g ai/ha
  Plant response rating, Ducksalad: 0
[19]; 500 g ai/ha
  Plant response rating, Rice: 0
[20]; 500 g ai/ha
  Plant response rating, Sedge, Umbrella: 0
